The supplement of paper PMC10307832

Columns and labels:
Test in all cases: relative viability (nuclei count vs DMSO), 5 days (fraction); higher = more cells survive
[1] = test system: SK-MES-1
How it was run: (§1)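 Relative viability divides the nuclei count in treated wells by that in vehicle wells. Lung cancer cell lines were seeded in 1536-well plates, dosed by pin tool the next day, and fixed and stained after 5 days in one step with final 0.05% Triton X-100, 1% formaldehyde and 1 ug/ml Hoechst. Dosing was a single drug or a fixed anchor-drug dose plus five library-drug doses (not always all listed) in √10 steps, and values are medians of duplicate plates imaged at 4×.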

[2] = test system: ABC-1
How it was run: as §1

[3] = test system: COR-L23
How it was run: as §1

[4] = test system: HCC-827
How it was run: as §1

[5] = test system: LC-2-ad
How it was run: as §1

[6] = test system: HCC-366
How it was run: as §1

[7] = test system: UMC-11
How it was run: as §1

[8] = test system: NCI-H1975
How it was run: as §1

[9] = test system: NCI-H661
How it was run: as §1

[10] = test system: NCI-H2085
How it was run: as §1

[11] = test system: HCC-15
How it was run: as §1

[12] = test system: PC-14
How it was run: as §1

[13] = test system: NCI-H2009
How it was run: as §1

[14] = test system: NCI-H2228
How it was run: as §1

[15] = test system: NCI-H1666
How it was run: as §1

[16] = test system: NCI-H2087
How it was run: as §1

[17] = test system: LCLC-103H
How it was run: as §1

[18] = test system: H3255
How it was run: as §1

[19] = test system: NCI-H1437
How it was run: as §1

[20] = test system: LXF-289
How it was run: as §1

[21] = test system: NCI-H2342
How it was run: as §1

[22] = test system: PC-3 [JPC-3]
How it was run: as §1

[23] = test system: NCI-H23
How it was run: as §1

CCNC(=O)c1noc(-c2cc(C(C)C)c(O)cc2O)c1-c1ccc(CN2CCOCC2)cc1 [Luminespib] + COc1cccc2cc(-c3nc([C@H]4CC[C@H](C(=O)O)CC4)n4ncnc(N)c34)[nH]c12 [OSI-027] (partner 0.5 µM) was tested, and the relative viability ([1]; first compound 0.002 µM) was 0.609, the relative viability ([1]; first compound 0.006325 µM) was 0.486 and the relative viability ([1]; first compound 0.02 µM) was 0.2. The relative viability ([1]; first compound 0.06325 µM) was 0.11, the relative viability ([1]; first compound 0.2 µM) was 0.131 and the relative viability ([2]; first compound 0.002 µM) was 0.532. For the same molecule, the relative viability ([2]; first compound 0.006325 µM) was 0.476, the relative viability ([2]; first compound 0.02 µM) was 0.312 and the relative viability ([2]; first compound 0.06325 µM) was 0.195. The relative viability ([2]; first compound 0.2 µM) was 0.186, the relative viability ([3]; first compound 0.002 µM) was 0.925 and the relative viability ([3]; first compound 0.006325 µM) was 0.655. It also gave a relative viability ([3]; first compound 0.02 µM) of 0.508, a relative viability ([3]; first compound 0.06325 µM) of 0.079 and a relative viability ([3]; first compound 0.2 µM) of 0.0776. For the same molecule, the relative viability ([4]; first compound 0.002 µM) was 0.795, the relative viability ([4]; first compound 0.006325 µM) was 0.725 and the relative viability ([4]; first compound 0.02 µM) was 0.543. It also gave a relative viability ([4]; first compound 0.06325 µM) of 0.354, a relative viability ([4]; first compound 0.2 µM) of 0.126 and a relative viability ([5]; first compound 0.002 µM) of 0.806. The relative viability ([5]; first compound 0.006325 µM) was 0.822, the relative viability ([5]; first compound 0.02 µM) was 0.569 and the relative viability ([5]; first compound 0.06325 µM) was 0.259. It also gave a relative viability ([5]; first compound 0.2 µM) of 0.28, a relative viability ([6]; first compound 0.002 µM) of 1.11 and a relative viability ([6]; first compound 0.006325 µM) of 0.832. The relative viability ([6]; first compound 0.02 µM) was 0.698, the relative viability ([6]; first compound 0.06325 µM) was 0.0495 and the relative viability ([6]; first compound 0.2 µM) was 0.0391. For the same molecule, the relative viability ([7]; first compound 0.002 µM) was 0.538, the relative viability ([7]; first compound 0.006325 µM) was 0.42 and the relative viability ([7]; first compound 0.02 µM) was 0.303. It also gave a relative viability ([7]; first compound 0.06325 µM) of 0.224, a relative viability ([7]; first compound 0.2 µM) of 0.207 and a relative viability ([8]; first compound 0.002 µM) of 0.746. The relative viability ([8]; first compound 0.006325 µM) was 0.677, the relative viability ([8]; first compound 0.02 µM) was 0.187 and the relative viability ([8]; first compound 0.06325 µM) was 0.0795. It also gave a relative viability ([8]; first compound 0.2 µM) of 0.0958, a relative viability ([9]; first compound 0.002 µM) of 0.802 and a relative viability ([9]; first compound 0.006325 µM) of 0.672. For the same molecule, the relative viability ([9]; first compound 0.02 µM) was 0.58, the relative viability ([9]; first compound 0.06325 µM) was 0.199 and the relative viability ([9]; first compound 0.2 µM) was 0.226. It also gave a relative viability ([10]; first compound 0.002 µM) of 0.793, a relative viability ([10]; first compound 0.006325 µM) of 0.779 and a relative viability ([10]; first compound 0.02 µM) of 0.395. The relative viability ([10]; first compound 0.06325 µM) was 0.242, the relative viability ([10]; first compound 0.2 µM) was 0.233 and the relative viability ([11]; first compound 0.002 µM) was 0.686. The relative viability ([11]; first compound 0.006325 µM) was 0.644, the relative viability ([11]; first compound 0.02 µM) was 0.556 and the relative viability ([11]; first compound 0.06325 µM) was 0.0983. It also gave a relative viability ([11]; first compound 0.2 µM) of 0.0973, a relative viability ([12]; first compound 0.002 µM) of 0.918 and a relative viability ([12]; first compound 0.006325 µM) of 0.598. For the same molecule, the relative viability ([12]; first compound 0.02 µM) was 0.11, the relative viability ([12]; first compound 0.06325 µM) was 0.0462 and the relative viability ([12]; first compound 0.2 µM) was 0.0587. It also gave a relative viability ([13]; first compound 0.002 µM) of 0.773, a relative viability ([13]; first compound 0.006325 µM) of 0.534 and a relative viability ([13]; first compound 0.02 µM) of 0.518. For the same molecule, the relative viability ([13]; first compound 0.06325 µM) was 0.0609, the relative viability ([13]; first compound 0.2 µM) was 0.0769 and the relative viability ([14]; first compound 0.002 µM) was 0.576. The relative viability ([14]; first compound 0.006325 µM) was 0.459, the relative viability ([14]; first compound 0.02 µM) was 0.116 and the relative viability ([14]; first compound 0.06325 µM) was 0.109. For the same molecule, the relative viability ([14]; first compound 0.2 µM) was 0.0698, the relative viability ([15]; first compound 0.002 µM) was 0.841 and the relative viability ([15]; first compound 0.006325 µM) was 0.801. It also gave a relative viability ([15]; first compound 0.02 µM) of 0.853, a relative viability ([15]; first compound 0.06325 µM) of 0.81 and a relative viability ([15]; first compound 0.2 µM) of 0.791. The relative viability ([16]; first compound 0.002 µM) was 0.553, the relative viability ([16]; first compound 0.006325 µM) was 0.454 and the relative viability ([16]; first compound 0.02 µM) was 0.157. It also gave a relative viability ([16]; first compound 0.06325 µM) of 0.125, a relative viability ([16]; first compound 0.2 µM) of 0.0972 and a relative viability ([17]; first compound 0.002 µM) of 0.457. It also gave a relative viability ([17]; first compound 0.006325 µM) of 0.471, a relative viability ([17]; first compound 0.02 µM) of 0.35 and a relative viability ([17]; first compound 0.06325 µM) of 0.503. It also gave a relative viability ([17]; first compound 0.2 µM) of 0.383, a relative viability ([18]; first compound 0.002 µM) of 0.596 and a relative viability ([18]; first compound 0.006325 µM) of 0.628. For the same molecule, the relative viability ([18]; first compound 0.06325 µM) was 0.577, the relative viability ([18]; first compound 0.2 µM) was 0.249 and the relative viability ([19]; first compound 0.002 µM) was 0.838. It also gave a relative viability ([19]; first compound 0.006325 µM) of 0.845, a relative viability ([19]; first compound 0.02 µM) of 0.466 and a relative viability ([19]; first compound 0.06325 µM) of 0.57. The relative viability ([19]; first compound 0.2 µM) was 0.187, the relative viability ([20]; first compound 0.002 µM) was 0.751 and the relative viability ([20]; first compound 0.006325 µM) was 0.762. The relative viability ([20]; first compound 0.02 µM) was 0.759, the relative viability ([20]; first compound 0.06325 µM) was 0.163 and the relative viability ([20]; first compound 0.2 µM) was 0.0755. The relative viability ([21]; first compound 0.002 µM) was 0.623, the relative viability ([21]; first compound 0.006325 µM) was 0.586 and the relative viability ([21]; first compound 0.02 µM) was 0.545. The relative viability ([21]; first compound 0.06325 µM) was 0.569, the relative viability ([21]; first compound 0.2 µM) was 0.397 and the relative viability ([22]; first compound 0.002 µM) was 0.813. For the same molecule, the relative viability ([22]; first compound 0.006325 µM) was 0.718, the relative viability ([22]; first compound 0.02 µM) was 0.583 and the relative viability ([22]; first compound 0.06325 µM) was 0.58. It also gave a relative viability ([22]; first compound 0.2 µM) of 0.225, a relative viability ([23]; first compound 0.002 µM) of 0.503 and a relative viability ([23]; first compound 0.006325 µM) of 0.508. For the same molecule, the relative viability ([23]; first compound 0.02 µM) was 0.322, the relative viability ([23]; first compound 0.06325 µM) was 0.133 and the relative viability ([23]; first compound 0.2 µM) was 0.136.
